Experimental data from patent US10085940B2, “Liposomes co-encapsulating a bisphosphonate and an amphipathic agent” (YISSUM RESEARCH DEVELOPMENT COMPANY OF THE HEBREW …, priority 2011, dated 2018).

Tests used:
[1] = tested on: N87 human gastric carcinoma cells; assay: In vitro cytotoxicity, 72 hr continuous exposure, methylene blue staining; type: cell-based; details: N-87
Experimental: (§1) Cytotoxicity was assayed using varying concentrations of ALD (0.1-200 μM) under standard 72 hr, continuous exposure, in 96-multiwell assays. Growth rate was assessed colorimetrically based on methylene blue staining and data was obtained with an automatic plate reader and IC50 values were determined

[2] = tested on: IGROV-1 ovarian carcinoma; assay: as above; type: cell-based, human
Experimental: as §1
Cytotoxicity was assayed as described above in Example 1.

KB-hiFR = assay: as above; type: cell-based, human; details: for IC50: KB-hiFR, 72 hr continuous exposure
Experimental: as §1

KG-1 cells = assay: PKH26/AnnexinV flow cytometry of KG-1 cells co-cultured with γδ T-cells; type: cell-based, human; details: 20 μg/mL (Doxil 13.3 μg/mL) 24 h, then 4 h with γδ T-cells 1:1 or 1:5, 100 U/mL IL-2
Experimental: The following method is based on the procedure described by Fischer and Mackensen (2003) The flow cytometric PKH-26 assay for the determination of T-cell mediated cytotoxic activity. Methods 31: 135-142.
Specifically, 1×10^5 KG-1 cells, previously stained with PKH26 Red Fluorescent, were plated in a 24 well plate in 1 mL of complete media. These cells were then treated with different preparations: • (i) 20 μg/mL Alendronate (free Alendronate) • (ii) 20 μg/mL of liposomal Alendronate+Doxorubicin (L-ALD/DOX), • (iii) 20 μg/mL of folate targeted liposomal Alendronate+Doxorubicin (FR-L-ALD/DOX); • (iv) 13.3 μg/mL Doxil (the amount of doxorubicin correspondent to doxorubicin in L-ALD/DOX) • (v) Empty liposomes (stealth) • (vi) Control—no treatment.
Cells were incubated for 24 h at 37° C. with a treatment formulation according to the above groups. After 24 h, each group of treated KG-1 cells was co-cultured with γδ T_cells at a ratio of 1 tumor cell to 1 γδ T-cell and at 1 tumor cell to 5 γδ T-cells. In addition, 100 U/mL of IL-2 was also given to each treatment group. […]
After 4 h incubation, the cell cultures were stained with AnnexinV FITC (BD) in order to measure the percentage of apoptotic cells. The samples were analysed by flow cytometry and the principle is that tumor cell death is measured by analysing PKH26^+AnnexinV^+ cells.

[3] = tested on: M109R (doxorubicin resistant) carcinoma; type: in vivo, mouse; details: M109R footpad tumor, i.v. 5 mg/kg doxorubicin or equivalent ALD, D7, D14, D21
Experimental: The tumor model used here is the mouse M109R (doxorubicin resistant) carcinoma.
M109R tumor cells (10^6 cells/0.05 ml) were inoculated into the subcutaneous space of the mouse right hind footpad. Five to 7 days after inoculation, mice injected with M109R cells developed solid tumors as measured by the increased thickening of the footpad. Different liposomes were injected i.v. at dose levels of 5 mg/kg based on Doxorubicin content or an amount of Alendronate equivalent to that present in the co-encapsulated formulation at doxorubicin dose of 5 mg/kg. […] Treatment was administered on Day 7 (D7), Day 14 (D14) and Day 21 (D21). Kaplan-Meyer curves were based on an experimental endpoint of tumor size equal or greater than 4 mm.

| Structure (SMILES) | IC50 [1] [nM] | IC50 [2] [nM] | IC50 (KB-hiFR) [nM] | tumor cell killing / sensitivity to γδ T-cells (PKH26+AnnexinV+ cells) (KG-1 cells) | IC50 (KB-hiFR; Homo sapiens) [nM] | cytotoxicity (in words) (KB-hiFR; stated for KB, N87 and IGROV cell lines together (FIGS. 3B-3D)) | anti-tumor activity [3] |
| --- | --- | --- | --- | --- | --- | --- | --- |
| COc1cccc2c1C(=O)c1c(O)c3c(c(O)c1C2=O)C[C@@](O)(C(=O)CO)C[C@@H]3O[C@H]1C[C@H](N)[C@H](O)[C@H](C)O1 [Free DOX, doxorubicin] | 3120 | 250 | 40 |  |  |  |  |
| NCCCC(O)(P(=O)(O)O)P(=O)(O)O [Free ALD, 4-amino-1-hydroxybutylidene-1,1-bisphosphonic acid] |  |  |  | enhances tumour sensitivity to γδ T-cells' cytotoxic action | > 20000 | essentially no cytotoxicity | no anti-tumor effect |
